Measurements from patent US7524860B2, “Antibacterial agents” (Pfizer Inc., priority 2004, dated 2009).
≈ marks a conversion by molar mass, not a printed value.

Test system: Neisseria gonorrhoeae, GC525 (NG-2888)
Assay: in-vitro antibacterial activity, microbroth dilution MIC susceptibility testing
Format: cell-based
Settings: Neisseria gonorrhoeae, microbroth dilution in gonococcal broth, 20-24 hours at 35 C, lowest concentration preventing visible growth, read-out: MIC
Experimental: The in-vitro antibacterial activity of selected compounds was determined against a stain of Neisseria gonorrhoeae, GC525 (NG-2888), which is described by Rouquette-Loughlin et al, in Journal of Bacteriology, February 2003, p. 1101-1106, at p. 1103. In general, minimum inhibitory concentration (MIC) susceptibility testing followed procedures recommended by the National Committee for Clinical Laboratory Standards (NCCLS^1-2) or followed the descriptions described below:
Neisseria gonorrhoeae strains were grown on Chocolate Agar II plates (BBL—Becton Dickinson Microbiology Systems, Cockeysville, Md.) and incubated at 35° C. in a humidified 5% CO2 incubator (Form a Scientific, Marietta Ohio). For microbroth dilution MIC testing, N. gonorrhoeae were tested in gonococcal broth (GCB):
Gram stains were also utilized. Permanent Stock Culture Collection
Bacterial stock cultures are stored as frozen suspensions at −70 C. N. gonorrhoeae cultures are suspended in inactivated Horse Serum (Colorado Serum Company, Denver, Colo.) containing 7.5% glucose prior to snap freezing in a dry ice/ethanol bath.
Preparation of Standardized Test Inocula and Plate Inoculation
Frozen stock cultures were used as the initial source of organisms for performing microbroth dilution MIC testing. Stock cultures were passed on their respective growth medium at least one growth cycle (18-24 hours) prior to their use. Bacterial culture suspensions were prepared directly from Chocolate Agar II plates into 10 mL cation-adjusted Mueller-Hinton Broth (CAMHB, BBL, # BB215069). Before use, cultures were adjusted to an optical density value of 1.6-2 on a Perkin-Elmer Lambda EZ150 Spectrophotometer (Wellesley, Mass.) set at a wavelength of 600 nm. Random cultures were plated for validation of actual colony counts. The adjusted cultures were diluted 400-fold (0.25 mL inoculum+100 mL GCB) into gonococcal broth producing a starting inoculum of approximately 5×10^5 cfu/mL. These cultures were inoculated into test plates (100 uL/well) using a Biomek® FX workstation (Beckman Coulter Inc., Fullerton, Calif.). The inoculated plates were placed in stacks of no more than 4 and covered with an empty plate. Plates were incubated for 20-24 hours at 35 C in a humidified CO2 incubator.
Test Compound (“Drug”) Preparation
Drug stock solutions (2 mg/mL in DMSO) were prepared on the day of testing. Drugs were weight corrected for assay content where necessary.
Drug Dilution Tray Preparation
Microbroth dilution stock plates were prepared in two dilution series, 64-0.06 ug drug/mL and 1-0.001 ug drug/mL. For the high concentration series, 200 uL of stock solution (2 mg/mL) was added to duplicate rows of a 96-well plate. This was used as the first well in the dilution series. Serial two-fold decremental dilutions were made using a BioMek FX robot (Beckman Coulter Inc., Fullerton, Calif.) with 10 of the remaining 11 wells, each of which contained 100 uL of the appropriate solvent/diluent. Row 12 contained solvent/diluent only and served as the control. For tube one of the low concentration series, 200 uL of a 31.25 ug/mL stock was added to duplicate rows of a 96-well plate. Serial two-fold dilutions were made as described above.
Daughter plates were spotted (3.2 uL/well) from the stock plates listed above using the BioMek FX robot and were inoculated with organism (100 uL/well) as described previously.
After incubation, the degree of growth in each well was read visually with the aid of a Test Reading Mirror (Dynatech Lab 220-16, Dynex Technologies, Chantilly, Va.). 96-well test plates are read in a darkened room with a single light shining from above. The MIC is the lowest concentration of drug that prevents macroscopically visible growth under the conditions of the test. […] If MIC values in duplicate tests differ by 1 well (two-fold), the […] value is reported. If duplicate tests vary by 2 dilutions (four-fold), the middle value is reported.

| MIC | SMILES |
| --- | --- |
| 8 µg/mL (≈ 18.6 µM) | CCNC(=O)Nc1nc2cc(-c3cccnc3)cc(C(=O)N[C@@H](C)c3ccccc3)n2n1 [Example 42, (S)-2-(3-Ethyl-ureido)-7-pyridin-3-yl-[1,2,4]triazolo[1,5-a]pyridine-5-carboxylic acid(1-phenyl-ethyl)-amide] |
| > 64 µg/mL | CCNC(=O)Nc1nc2cc(-c3cccnc3)cc(C(=O)NCC(C)(C)C)n2n1 [Example 43, 2-(3-Ethyl-ureido)-7-pyridin-3-yl-[1,2,4]triazolo[1,5-a]pyridine-5-carboxylic acid (2,2-dimethyl-propyl)-amide] |
| > 64 µg/mL | CCNC(=O)Nc1nc2cc(-c3cccnc3)cc(C(=O)NC3CCOC3)n2n1 (centres unmarked) [Example 45, 2-(3-Ethyl-ureido)-7-pyridin-3-yl-[1,2,4]triazolo[1,5-a]pyridine-5-carboxylic acid (tetrahydro-furan-3-yl)-amide] |
| 1 µg/mL (≈ 2.29 µM) | CCNC(=O)Nc1nc2cc(-c3cccnc3)cc(C(=O)NCCC3CCCN3C)n2n1 (centres unmarked) [Example 46, 2-(3-Ethyl-ureido)-7-pyridin-3-yl-[1,2,4]triazolo[1,5-a]pyridine-5-carboxylic acid [2-(1-methyl-pyrrolidin-2-yl)-ethyl]-amide] |
| 16 µg/mL (≈ 36.7 µM) | CCNC(=O)Nc1nc2cc(-c3cccnc3)cc(C(=O)NCCCN3CCCC3)n2n1 [Example 47, 2-(3-Ethyl-ureido)-7-pyridin-3-yl-[1,2,4]triazolo[1,5-a]pyridine-5-carboxylic acid (3-pyrrolidin-1-yl-propyl)-amide] |
| 16 µg/mL (≈ 37.3 µM) | CCNC(=O)Nc1nc2cc(-c3cccnc3)cc(C(=O)N[C@H](C)c3ccccc3)n2n1 [Example 48, (R)-2-(3-Ethyl-ureido)-7-pyridin-3-yl-[1,2,4]triazolo[1,5-a]pyridine-5-carboxylic acid(1-phenyl-ethyl)-amide] |
| > 64 µg/mL | CCNC(=O)Nc1nc2cc(-c3cccnc3)cc(C(=O)N3CCC(N(CC)CC)C3)n2n1 (centres unmarked) [Example 49, 1-[5-(3-Diethylamino-pyrrolidine-1-carbonyl)-7-pyridin-3-yl-[1,2,4]triazolo[1,5-a]pyridin-2-yl]-3-ethyl-urea] |
| 2 µg/mL (≈ 4.9 µM) | CCNC(=O)Nc1nc2cc(-c3cccnc3)cc(C(=O)Nc3nccs3)n2n1 [Example 50, 2-(3-Ethyl-ureido)-7-pyridin-3-yl-[1,2,4]triazolo[1,5-a]pyridine-5-carboxylic acidthiazol-2-ylamide] |
| 64 µg/mL (≈ 147 µM) | CCNC(=O)Nc1nc2cc(-c3cccnc3)cc(C(=O)N(C)Cc3nnc(C)o3)n2n1 [Example 51, 2-(3-Ethyl-ureido)-7-pyridin-3-yl-[1,2,4]triazolo[1,5-a]pyridine-5-carboxylic acid methyl-(5-methyl-[1,3,4]oxadiazol-2-ylmethyl)-amide] |
| 4 µg/mL (≈ 10.9 µM) | CCNC(=O)Nc1nc2cc(-c3cccc(C)c3)cc(C(=O)NCC)n2n1 [Example 52, 2-(3-Ethyl-ureido)-7-m-tolyl-[1,2,4]triazolo[1,5-a]pyridine-5-carboxylic acid ethylamide] |
| 16 µg/mL (≈ 41.6 µM) | CCNC(=O)Nc1nc2cc(-c3ccc(F)c(C)c3)cc(C(=O)NCC)n2n1 [Example 53, 2-(3-Ethyl-ureido)-7-(4-fluoro-3-methyl-phenyl)-[1,2,4]triazolo[1,5-a]pyridine-5-carboxylic acid ethylamide] |
| > 64 µg/mL | CCNC(=O)Nc1nc2cc(-c3ccccc3OC)cc(C(=O)NCC)n2n1 [Example 54, 2-(3-Ethyl-ureido)-7-(2-methoxy-phenyl)-[1,2,4]triazolo[1,5-a]pyridine-5-carboxylic acid ethylamide] |
| 2 µg/mL (≈ 5.15 µM) | CCNC(=O)Nc1nc2cc(-c3ccc(F)c(F)c3)cc(C(=O)NCC)n2n1 [Example 55, 7-(3,4-Difluoro-phenyl)-2-(3-ethyl-ureido)-[1,2,4]triazolo[1,5-a]pyridine-5-carboxylic acid ethylamide] |
| 2 µg/mL (≈ 5.07 µM) | CCNC(=O)Nc1nc2cc(-c3ccc4c(c3)CCO4)cc(C(=O)NCC)n2n1 [Example 57, 7-(2,3-Dihydro-benzofuran-5-yl)-2-(3-ethyl-ureido)-[1,2,4]triazolo[1,5-a]pyridine-5-carboxylic acid ethylamide] |
| 2 µg/mL (≈ 4.9 µM) | CCNC(=O)Nc1nc2cc(-c3ccc(C(C)(C)C)cc3)cc(C(=O)NCC)n2n1 [Example 58, 7-(4-tert-Butyl-phenyl)-2-(3-ethyl-ureido)-[1,2,4]triazolo[1,5-a]pyridine-5-carboxylic acid ethylamide] |
| > 16 µg/mL | CCNC(=O)Nc1nc2cc(-c3cccc(SC)c3)cc(C(=O)NCC)n2n1 [Example 60, 2-(3-Ethyl-ureido)-7-(3-methyl-sulfanyl-phenyl)-[1,2,4]triazolo[1,5-a]pyridine-5-carboxylic acid ethylamide] |
| 2 µg/mL (≈ 5.07 µM) | CCNC(=O)Nc1nc2cc(-c3ccc(C(C)C)cc3)cc(C(=O)NCC)n2n1 [Example 61, 2-(3-Ethyl-ureido)-7-(4-isopropyl-phenyl)-[1,2,4]triazolo[1,5-a]pyridine-5-carboxylic acid ethylamide] |
| 2 µg/mL (≈ 5.07 µM) | CCNC(=O)Nc1nc2cc(-c3cccc(C(C)C)c3)cc(C(=O)NCC)n2n1 [Example 62, 2-(3-Ethyl-ureido)-7-(3-isopropyl-phenyl)-[1,2,4]triazolo[1,5-a]pyridine-5-carboxylic acid ethylamide] |
| 8 µg/mL (≈ 20.8 µM) | CCNC(=O)Nc1nc2cc(-c3ccc(F)cc3C)cc(C(=O)NCC)n2n1 [Example 63, 2-(3-Ethyl-ureido)-7-(4-fluoro-2-methyl-phenyl)-[1,2,4]triazolo[1,5-a]pyridine-5-carboxylic acid ethylamide] |
| > 64 µg/mL | CCNC(=O)Nc1nc2cc(-c3ccc(F)cc3F)cc(C(=O)NCC)n2n1 [Example 64, 7-(2,4-Difluoro-phenyl)-2-(3-ethyl-ureido)-[1,2,4]triazolo[1,5-a]pyridine-5-carboxylic acid ethylamide] |
| 32 µg/mL (≈ 84.8 µM) | CCNC(=O)Nc1nc2cc(-c3ccccc3C#N)cc(C(=O)NCC)n2n1 [Example 65, 7-(2-Cyano-phenyl)-2-(3-ethyl-ureido)-[1,2,4]triazolo[1,5-a]pyridine-5-carboxylic acid ethylamide] |
| 4 µg/mL (≈ 10.3 µM) | CCNC(=O)Nc1nc2cc(-c3cc(F)ccc3F)cc(C(=O)NCC)n2n1 [Example 66, 7-(2,5-Difluoro-phenyl)-2-(3-ethyl-ureido)-[1,2,4]triazolo[1,5-a]pyridine-5-carboxylic acid ethylamide] |
| 1 µg/mL (≈ 2.59 µM) | CCNC(=O)Nc1nc2cc(-c3cccc(Cl)c3)cc(C(=O)NCC)n2n1 [Example 67, 7-(3-Chloro-phenyl)-2-(3-ethyl-ureido)-[1,2,4]triazolo[1,5-a]pyridine-5-carboxylic acid ethylamide] |
| 2 µg/mL (≈ 5.46 µM) | CCNC(=O)Nc1nc2cc(-c3ccc(C)cc3)cc(C(=O)NCC)n2n1 [Example 68, 2-(3-Ethyl-ureido)-7-p-tolyl-[1,2,4]triazolo[1,5-a]pyridine-5-carboxylic acid ethylamide] |
| 8 µg/mL (≈ 21.6 µM) | CCNC(=O)Nc1nc2cc(-c3ccc(F)cc3)cc(C(=O)NCC)n2n1 [Example 69, 2-(3-Ethyl-ureido)-7-(4-fluoro-phenyl)-[1,2,4]triazolo[1,5-a]pyridine-5-carboxylic acid ethylamide] |
| 1 µg/mL (≈ 2.7 µM) | CCNC(=O)Nc1nc2cc(-c3cccc(F)c3)cc(C(=O)NCC)n2n1 [Example 70, 2-(3-Ethyl-ureido)-7-(3-fluoro-phenyl)-[1,2,4]triazolo[1,5-a]pyridine-5-carboxylic acid ethylamide] |
